Patent publication US20110044938A1 (NYCOMED GMBH, priority 2006, published 2011)

What was measured:
[1] = tested on: RKO (RKOp27) human colon adenocarcinoma cells; test: Alamar Blue cell viability assay, anti-proliferative/cytotoxic activity on proliferating RKO subclones; assay type: cell-based; conditions: RKOp27, 72 h, RKO p27 uninduced (proliferating) cells, value = class bound given in Table A, read-out: −logIC50 RKO p27 uninduced (proliferating) (converted)
Protocol: The anti-proliferative/cytotoxic activity of the compounds described herein, can be tested on subclones of RKO (RKOp27) human colon adenocarcinoma cells (Schmidt et al., Oncogene 19, 2423-2429; 2000) using the Alamar Blue cell viability assay (described in O'Brien et al. Eur J Biochem 267, 5421-5426, 2000). The compounds are dissolved as 20 mM solutions in dimethylsulfoxide (DMSO) and subsequently diluted in semi-logarithmic steps. DMSO dilutions are further diluted 1:100 into Dulbecco's modified Eagle's medium (DMEM) containing 10% fetal calf serum to a final concentration twice as much as the final concentration in the test. RKO subclones are seeded into 96 well flat bottom plates at a density of 5000 cells per well in a volume of 50 μl per well. 24 hours after seeding the 50 μl each of the compound dilutions in DMEM medium are added into each well of the 96 Well plate. Each compound dilution is tested as quadruplicates. Wells containing untreated control cells are filled with 50 μl DMEM medium containing 1% DMSO. The cells are then incubated with the substances for 72 hours at 37° C. in a hunified atmosphere containing 5% carbon dioxide. To determine the viability of the cells, 10 μl of an Alamar Blue solution (Biosource) are added and the fluorescence is measured at an extinction of 544 nm and an emission of 590 nm. For the calculation of the cell viability the emission value from untreated cells is set as 100% viability and the emission rates of treated cells are set in relation to the values of untreated cells. Viabilities are expressed as % values.
The corresponding IC50 values of the compounds for anti-proliferative/cytotoxic activity are determined from the concentration-effect curves.
(§1) Representative −log IC50 [mol/l] values for anti-proliferation/cytotoxicity determined in the mentioned assays follow from the following table A, in which the numbers of the compound correspond to the numbers of the examples.

[2] = tested on: subclones of RKO colon adenocarcinoma cells (RKOp27 or RKOp21) arrested by Ponasterone A; test: Alamar Blue cell viability assay, cell cycle specific mode of action: cells arrested by ectopic p27Kip1 induced by Ponasterone A versus proliferating cells; assay type: cell-based; conditions: Homo sapiens, RKO p27 induced (arrested) cells, 10 μM Ponasterone A, 72 hours, value = class bound given in Table A, read-out: −logIC50 RKO p27 induced (arrested) (converted)
Protocol: To determine the cell cycle specific mode of action, subclones of RKO colon adenocarcinoma cells (RKOp27 or RKOp21 as described by Schmidt et al. in Oncogene 19, 2423-2429; 2000) are seeded into 96 well flat bottom plates at a density of 15000 cells per well in a volume of 50 μl per well in DMEM growth medium with 10% FCS containing 10 μM Ponasterone A. 24 hours after seeding the 50 μl each of the compound dilutions in DMEM medium are added into each well of the 96 Well plate. Each compound dilution is tested as quadruplicates. Wells containing untreated control cells are filled with 50 μl DMEM medium containing 1% DMSO. The cells are then incubated with the substances for 72 hours at 37° C. in a humidified athmosphere containing 5% carbon dioxide. To determine the viability of the cells, 10 μl of an Alamar Blue solution (Biosource) are added and the fluorescence was measured at an extinction of 544 nm and an emission of 590 nm. For the calculation of the cell viability the emission value from untreated cells is set as 100% viability and the emission rates of treated cells are set in relation to the values of untreated cells. Viabilities are expressed as % values. Viability is compared of proliferating cells grown in the absence of the inducer Ponasterone A, versus viability of cells arrested by the expression of ectopic p27Kip1 induced by Ponasterone A.
as §1

Compound | IC50 [2] [nM] | IC50 [1] [nM]
N#Cc1c(NC(=O)/C=C/c2cccnc2)sc2c1CCC(OC(=O)NCC1CCOCC1)C2 (stereo not drawn) [Example 22, (Tetrahydro-pyran-4-ylmethyl)-carbamic acid 3-cyano-2-((E)-3-pyridin-3-yl-allanoylamino)-4,5,6,7-tetrahydro-benzo[b]thiophen-6-yl ester] | ≥ 100000 | 501 to 2000
N#Cc1c(NC(=O)/C=C/c2cccnc2)sc2c1CCC(OC(=O)NC1CCOCC1)C2 (stereo not drawn) [Example 26, (Tetrahydro-pyran-4-yl)-carbamic acid 3-cyano-2-((E)-3-pyridin-3-yl-allanoylamino)-4,5,6,7-tetrahydro-benzo[b]thiophen-6-yl ester] | ≥ 100000 | 501 to 2000
COCCOC(=O)OC1CCc2c(sc(NC(=O)/C=C/c3cccnc3)c2C#N)C1 (stereo not drawn) [Example 27, Carbonic acid 3-cyano-2-((E)-3-pyridin-3-yl-allanoylamino)-4,5,6,7-tetrahydro-benzo[b]thiophen-6-yl ester 2-methoxy-ethyl ester] | ≥ 100000 | ≤ 501
CCOc1ccccc1/C=C/C(=O)Nc1sc2c(c1C#N)CCC(COC(=O)NCCO)C2 (stereo not drawn) [Example 28, (2-Hydroxy-ethyl)-carbamic acid 3-cyano-2-[(E)-3-(2-ethoxy-phenyl)-allanoylamino]-4,5,6,7-tetrahydro-benzo[b]thiophen-6-ylmethyl ester] | ≥ 100000 | 501 to 2000
CCOc1ccccc1/C=C/C(=O)Nc1sc2c(c1C#N)CCC(OC(=O)NCCn1ccnc1)C2 (stereo not drawn) [Example 31, (2-Imidazol-1-yl-ethyl)-carbamic acid-3-cyano-2-[(E)-3-(2-ethoxy-phenyl)-allanoylamino]-4,5,6,7-tetrahydro-benzo[b]thiophen-6-yl ester] | ≥ 10000 | ≤ 501
CCOc1ccccc1/C=C/C(=O)Nc1sc2c(c1C#N)CCC(COC(=O)NCCn1ccnc1)C2 (stereo not drawn) [Example 32, (2-Imidazol-1-yl-ethyl)-carbamic acid 3-cyano-2-[(E)-3-(2-ethoxy-phenyl)-allanoylamino]-4,5,6,7-tetrahydro-benzo[b]thiophen-6-ylmethyl ester] | ≥ 100000 | 501 to 2000
N#Cc1c(NC(=O)/C=C/c2cccnc2)sc2c1CCC(OC(=O)NCc1cccnc1)C2 (stereo not drawn) [Example 35, Pyridin-3-ylmethyl-carbamic acid 3-cyano-2-((E)-3-pyridin-3-yl-allanoylamino)-4,5,6,7-tetrahydro-benzo[b]thiophen-6-yl ester] | ≥ 100000 | 501 to 2000
N#Cc1c(NC(=O)/C=C/c2cccnc2)sc2c1CCC(OC(=O)NCCc1cccnc1)C2 (stereo not drawn) [Example 36, (2-Pyridin-3-yl-ethyl)-carbamic acid 3-cyano-2-((E)-3-pyridin-3-yl-allanoylamino)-4,5,6,7-tetrahydro-benzo[b]thiophen-6-yl ester] | ≥ 50100 | 501 to 2000
N#Cc1c(NC(=O)/C=C/c2cccnc2)sc2c1CCC(OC(=O)NCCn1ccnc1)C2 (stereo not drawn) [Example 37, (2-Imidazol-1-yl-ethyl)-carbamic acid 3-cyano-2-((E)-3-pyridin-3-yl-allanoylamino)-4,5,6,7-tetrahydro-benzo[b]thiophen-6-yl ester] | ≥ 100000 | 501 to 2000
Cn1cncc1CNC(=O)OC1CCc2c(sc(NC(=O)/C=C/c3cccnc3)c2C#N)C1 (stereo not drawn) [Example 38, (3-Methyl-3H-imidazol-4-ylmethyl)-carbamic acid 3-cyano-2-((E)-3-pyridin-3-yl-allanoylamino)-4,5,6,7-tetrahydro-benzo[b]thiophen-6-yl ester] | ≥ 100000 | 501 to 2000
N#Cc1c(NC(=O)/C=C/c2cccnc2)sc2c1CCC(OC(=O)NCc1ncc[nH]1)C2 (stereo not drawn) [Example 39, (1H-Imidazol-2-ylmethyl)-carbamic acid 3-cyano-2-((E)-3-pyridin-3-yl-allanoylamino)-4,5,6,7-tetrahydro-benzo[b]thiophen-6-yl ester] | ≥ 100000 | 501 to 2000
Cn1nccc1CNC(=O)OC1CCc2c(sc(NC(=O)/C=C/c3cccnc3)c2C#N)C1 (stereo not drawn) [Example 40, (2-Methyl-2H-pyrazol-3-ylmethyl)-carbamic acid 3-cyano-2-((E)-3-pyridin-3-yl-allanoylamino)-4,5,6,7-tetrahydro-benzo[b]thiophen-6-yl ester] | ≥ 100000 | ≤ 501
Cn1cc(CNC(=O)OC2CCc3c(sc(NC(=O)/C=C/c4cccnc4)c3C#N)C2)cn1 (stereo not drawn) [Example 41, (1-Methyl-1H-pyrazol-4-ylmethyl)-carbamic acid 3-cyano-2-((E)-3-pyridin-3-yl-allanoylamino)-4,5,6,7-tetrahydro-benzo[b]thiophen-6-yl ester] | ≥ 100000 | ≤ 501
Cc1cc(CNC(=O)OC2CCc3c(sc(NC(=O)/C=C/c4cccnc4)c3C#N)C2)no1 (stereo not drawn) [Example 42, (5-Methyl-isoxazol-3-ylmethyl)-carbamic acid 3-cyano-2-((E)-3-pyridin-3-yl-allanoylamino)-4,5,6,7-tetrahydro-benzo[b]thiophen-6-yl ester] | ≥ 100000 | 501 to 2000
Cn1cncc1CNC(=O)OCC1CCc2c(sc(NC(=O)/C=C/c3cccnc3)c2C#N)C1 (stereo not drawn) [Example 43, (3-Methyl-3H-imidazol-4-ylmethyl)-carbamic acid 3-cyano-2-((E)-3-pyridin-3-yl-allanoylamino)-4,5,6,7-tetrahydro-benzo[b]thiophen-6-ylmethyl ester] | ≥ 100000 | ≤ 501

Second part, led by results:

IC50 [2] [nM] | Compound | IC50 [1] [nM]
≥ 100000 | N#Cc1c(NC(=O)/C=C/c2cccnc2)sc2c1CCC(OC(=O)NCCO)C2 (stereo not drawn) [Example 23, (2-Hydroxy-ethyl)-carbamic acid 3-cyano-2-((E)-3-pyridin-3-yl-allanoylamino)-4,5,6,7-tetrahydro-benzo[b]thiophen-6-yl ester] | 501 to 2000
≥ 100000 | N#Cc1c(NC(=O)/C=C/c2cccnc2)sc2c1CCC(COC(=O)NCCO)C2 (stereo not drawn) [Example 29, (2-Hydroxy-ethyl)-carbamic acid 3-cyano-2-((E)-3-pyridin-3-yl-allanoylamino)-4,5,6,7-tetrahydro-benzo[b]thiophen-6-ylmethyl ester] | 501 to 2000
≥ 100000 | N#Cc1c(NC(=O)/C=C/c2cccnc2)sc2c1CCC(COC(=O)NCCn1ccnc1)C2 (stereo not drawn) [Example 30, (2-Imidazol-1-yl-ethyl)-carbamic acid-3-cyano-2-((E)-3-pyridin-3-yl-allanoylamino)-4,5,6,7-tetrahydro-benzo[b]thiophen-6-ylmethyl ester] | 501 to 2000
≥ 100000 | Cn1cnc(CNC(=O)OCC2CCc3c(sc(NC(=O)/C=C/c4cccnc4)c3C#N)C2)c1 (stereo not drawn) [Example 44, (1-Methyl-1H-imidazol-4-ylmethyl)-carbamic acid 3-cyano-2-((E)-3-pyridin-3-yl-allanoylamino)-4,5,6,7-tetrahydro-benzo[b]thiophen-6-ylmethyl ester] | ≤ 501
≥ 100000 | Cn1ccnc1CNC(=O)OCC1CCc2c(sc(NC(=O)/C=C/c3cccnc3)c2C#N)C1 (stereo not drawn) [Example 45, (1-Methyl-1H-imidazol-2-ylmethyl)-carbamic acid 3-cyano-2-((E)-3-pyridin-3-yl-allanoylamino)-4,5,6,7-tetrahydro-benzo[b]thiophen-6-ylmethyl ester] | 501 to 2000
≥ 100000 | Cn1nccc1CNC(=O)OCC1CCc2c(sc(NC(=O)/C=C/c3cccnc3)c2C#N)C1 (stereo not drawn) [Example 46, (2-Methyl-2H-pyrazol-3-ylmethyl)-carbamic acid 3-cyano-2-((E)-3-pyridin-3-yl-allanoylamino)-4,5,6,7-tetrahydro-benzo[b]thiophen-6-ylmethyl ester] | ≤ 501
